Measurements as given in patent US7235548B2, “Compounds and their use as positive AMPA receptor modulators” (NeuroSearch A/S, priority 1998, dated 2007).

Tested on: NMRI mice
Experiment: Passive avoidance (associative memory)
Assay type: in vivo, mouse
Conditions: mice pre-treated before training, test after 24 hours; different concentrations; FIG. 17
Experimental: PURPOSE: To test the pharmacological effect of compounds on associative memory.
PRINCIPLE: A Mouse is placed in a light compartment with access to a dark compartment. If it enter the dark compartment it will receive a foot-shock (0.4 mA). After a delay (24 hours) the association to risk an unpleasant foot-shock by re-entering the dark compartment is tested.
ANIMALS: Female NMRI mice (Bomholdtgaard, DK) weighing 22–25 g were used. The mice were kept in Macrolon plastic cages with free access to food (Altromin, DK) and tap water. The mice were habituated to the laboratory for at least 3 days before testing (light on 7:00am/light off 7:00 pm).
EQUIPMENT: The passive avoidance apparatus consisted of a modular test chambers (ENV-307, MED-Associates, US). The light and the dark compartment consisted of plexiglas boxes of equal size (15×17×13 cm; width×length×height) with metal grid floors. A sliding guillotine door was located at the aperture (4×4 cm) connecting the two compartments. […]
[…]: Entry latency (sec) to re-enter the dark compartment was measured. […]
Training: One mouse is placed in the light compartment and the guillotine door to the dark compartment is opened. […] Test: After a delay (24 hours) the mouse will re-enter the light compartment and time latency to enter the dark compartment is measured with a time limit at 2 minutes. […]

## CN1CCN(S(=O)(=O)c2ccc3c(c2)S(=O)(=O)NC(C2CCCCC2)N3)CC1 (stereo not shown) [Compound 61, 3-Cyclohexyl-7-(4′-methylpiperazino)sulfonyl-1,2,3,4-tetrahydro-1,2,4-benzothiadiazine-1,1-dioxide]
  entry latency to re-enter the dark compartment (memory): memory enhancing effect
